{
  "source": "patent US8124793B2",
  "about": "“Derivatives of ethylene methanedisulfonate as cancer chemotherapeutic agents” (priority 2007, dated 2012)",
  "assay_type_in_all_cases": "cell-based",
  "key": {"HOP-92": {"test_system": "HOP-92", "test": "NCI screen, growth of human tumor cells: Non-Small Cell Lung HOP-92", "conditions": "HOP-92 (Non-Small Cell Lung), 10^−4 molar", "protocol": "(§1) In the NCI screening process, each compound was tested and described by a minimum of 60 data points. The test data include, but are not limited to the type of cancer, the molar concentration used in the screen, and the percent growth of the cancer. In some cases, NMR and elemental analysis were used for structural assignment."}, "SNB-75": {"test_system": "SNB-75", "test": "NCI screen, growth of human tumor cells: CNS Cancer SNB-75", "conditions": "SNB-75 (CNS Cancer), 10^−4 molar", "protocol": "as §1"}, "CCRF-CEM": {"test_system": "CCRF-CEM", "test": "NCI screen, growth of human tumor cells: Leukemia CCRF-CEM", "conditions": "for % Growth: CCRF-CEM", "protocol": "as §1"}, "human cancer cells": {"test_system": "human cancer cells", "test": "NCI screen summary over the cancers tested (negative growth of human cancer cells)", "conditions": "cancers with negative growth / cancers tested", "protocol": "as §1\nThe derivatives in the tables are grouped using the same category as in the tables 1-6."}, "ACHN": {"test_system": "ACHN", "test": "NCI screen, growth of human tumor cells: Renal Cancer ACHN", "conditions": "ACHN (Renal Cancer), 10^−4 molar", "protocol": "as §1"}, "MOLT-4": {"test_system": "MOLT-4", "test": "NCI screen, growth of human tumor cells: Leukemia MOLT-4", "protocol": "as §1"}, "NCI-H460": {"test_system": "NCI-H460", "test": "NCI screen, growth of human tumor cells: Non-Small Cell Lung NCI-H460", "conditions": "NCI-H460 (Non-Small Cell Lung), 10^−4 molar", "protocol": "as §1"}, "SF-295": {"test_system": "SF-295", "test": "NCI screen, growth of human tumor cells: CNS Cancer SF-295", "protocol": "as §1"}, "HOP-62": {"test_system": "HOP-62", "test": "NCI screen, growth of human tumor cells: Non-Small Cell Lung HOP-62", "conditions": "HOP-62 (Non-Small Cell Lung), 10^−4 molar", "protocol": "as §1"}, "SK-MEL-2": {"test_system": "SK-MEL-2", "test": "NCI screen, growth of human tumor cells: Melanoma SK-MEL-2", "conditions": "SK-MEL-2 (Melanoma), 10^−4 molar", "protocol": "as §1"}, "SR": {"test_system": "SR", "test": "NCI screen, growth of human tumor cells: Leukemia SR", "conditions": "for % Growth: SR", "protocol": "as §1"}, "OVCAR-3": {"test_system": "OVCAR-3", "test": "NCI screen, growth of human tumor cells: Ovarian Cancer OVCAR-3", "conditions": "OVCAR-3 (Ovarian Cancer), 10^−4 molar", "protocol": "as §1"}, "RXF-393": {"test_system": "RXF-393", "test": "NCI screen, growth of human tumor cells: Renal Cancer RXF-393", "conditions": "RXF-393 (Renal Cancer), 10^−4 molar", "protocol": "as §1"}, "SF-539": {"test_system": "SF-539", "test": "NCI screen, growth of human tumor cells: CNS Cancer SF-539", "conditions": "SF-539 (CNS Cancer), 10^−4 molar", "protocol": "as §1"}, "K562": {"test_system": "K562", "test": "NCI screen, growth of human tumor cells: Leukemia K562", "protocol": "as §1"}, "KM12": {"test_system": "KM12", "test": "NCI screen, growth of human tumor cells: Colon Cancer KM12", "protocol": "as §1"}},
  "data": [
    {"compound": "CSC(=NC(=O)c1cn([C@H]2O[C@H](COC(C)=O)[C@H]3OC(C)(C)O[C@H]32)c2ccccc12)SC", "note": "[NSC 732264]", "values": [
      {"measurement": "percent of growth of human tumor cells", "setting": "HOP-92", "value": 22, "unit": "%"}
    ]},
    {"compound": "O=S1(=O)OCCOS(=O)(=O)C1=NNc1c(O)cc(S(=O)(=O)O)c2ccccc12", "note": "[NSC 686564]", "values": [
      {"measurement": "percent of growth of human tumor cells", "setting": "SNB-75", "value": 7, "unit": "%"},
      {"measurement": "percent of growth of human tumor cells", "setting": "CCRF-CEM; CCRF-CEM (Leukemia), 10^−4 molar", "value": 14, "unit": "%"},
      {"measurement": "Percentage of cancers showing negative growth cancers tested", "setting": "human cancer cells; 10^−4 M conc.", "value": "10^−4 M conc. = 0/5 = 0%"},
      {"measurement": "percent of growth of human tumor cells", "setting": "ACHN", "value": 26, "unit": "%"},
      {"measurement": "percent of growth of human tumor cells", "setting": "MOLT-4; MOLT-4 (Leukemia), 10^−4 molar", "value": 23, "unit": "%"},
      {"measurement": "percent of growth of human tumor cells", "setting": "NCI-H460", "value": 6, "unit": "%"}
    ]},
    {"compound": "O=C(c1ccc2ccccc2c1)C1(I)S(=O)(=O)OCCOS1(=O)=O", "note": "[NSC 679046]", "values": [
      {"measurement": "Percentage of cancers showing negative growth cancers tested", "setting": "human cancer cells; 10^−4 M conc.", "value": 100, "unit": "%"},
      {"measurement": "Percentage of cancers showing negative growth cancers tested", "setting": "human cancer cells; 10^−5 M conc.", "value": 100, "unit": "%"},
      {"measurement": "Percentage of cancers showing negative growth cancers tested", "setting": "human cancer cells; 10^−6 M conc.", "value": 100, "unit": "%"},
      {"measurement": "Percentage of cancers showing negative growth cancers tested", "setting": "human cancer cells; 10^−7 M conc.", "value": 100, "unit": "%"},
      {"measurement": "Percentage of cancers showing negative growth cancers tested", "setting": "human cancer cells; 10^−8 M conc.", "value": 0, "unit": "%"},
      {"measurement": "% Growth", "setting": "SF-295; SF-295, 10^−4 molar", "value": "−52", "unit": "%"},
      {"measurement": "% Growth", "setting": "SF-295; SF-295, 10^−5 molar", "value": "−58", "unit": "%"},
      {"measurement": "% Growth", "setting": "SF-295; SF-295, 10^−6 molar", "value": "−65", "unit": "%"},
      {"measurement": "% Growth", "setting": "SF-295; SF-295, 10^−7 molar", "value": "−56", "unit": "%"},
      {"measurement": "% Growth", "setting": "SF-295; SF-295, 10^−8 molar", "value": 51, "unit": "%"}
    ]},
    {"compound": "COC(=O)/C=C(\\C(=O)OC)C1C(=O)Oc2c(C)c(=O)c3ccccc3n21", "note": "(stereo not shown) [NSC 670993]", "values": [
      {"measurement": "percent of growth of human tumor cells", "setting": "HOP-62", "value": "−53", "unit": "%"}
    ]},
    {"compound": "CN(C)C(=N)N=C(N)N.CS(C)=O.[Cl][Pt][Cl]", "note": "[NSC 671543]", "values": [
      {"measurement": "percent of growth of human tumor cells", "setting": "SK-MEL-2", "value": 30, "unit": "%"}
    ]},
    {"compound": "CCCCCCCCOCC1S(=O)(=O)OCCOS1(=O)=O", "note": "[NSC 671535]", "values": [
      {"measurement": "Percentage of cancers showing negative growth cancers tested", "setting": "human cancer cells; 10^−4 M conc.", "value": "10^−4 M conc. = 0/1 = 0%"},
      {"measurement": "percent of growth of human tumor cells", "setting": "SR; SR (Leukemia), 10^−4 molar", "value": 5, "unit": "%"}
    ]},
    {"compound": "C[Si](C)(OCCS(=O)(=O)O)OC(=C1S(=O)(=O)OCCOS1(=O)=O)c1cccc2ccccc12.[Na+]", "note": "[NSC 679049]", "values": [
      {"measurement": "percent of growth of human tumor cells", "setting": "OVCAR-3", "value": 22, "unit": "%"},
      {"measurement": "percent of growth of human tumor cells", "setting": "RXF-393", "value": 23, "unit": "%"}
    ]},
    {"compound": "ethylene (2-methyl-2-acetyl)-ethylene-1,1-disulfonate [NSC 698121]", "values": [
      {"measurement": "percent of growth of human tumor cells", "setting": "SF-539", "value": 18, "unit": "%"},
      {"measurement": "% Growth", "setting": "CCRF-CEM; 10^−4 molar", "value": 18, "unit": "%"},
      {"measurement": "% Growth", "setting": "CCRF-CEM; 10^−5 molar", "value": 51, "unit": "%"},
      {"measurement": "% Growth", "setting": "CCRF-CEM; 10^−6 molar", "value": 61, "unit": "%"},
      {"measurement": "% Growth", "setting": "CCRF-CEM; 10^−7 molar", "value": 68, "unit": "%"},
      {"measurement": "Percentage of cancers showing negative growth cancers tested", "setting": "human cancer cells; 10^−4 M conc.", "value": "10^−4 M conc. = 1/8 = 0%"},
      {"measurement": "percent of growth of human tumor cells", "setting": "ACHN", "value": 29, "unit": "%"},
      {"measurement": "% Growth", "setting": "K562; K562, 10^−4 molar", "value": 54, "unit": "%"},
      {"measurement": "% Growth", "setting": "K562; K562, 10^−5 molar", "value": 59, "unit": "%"},
      {"measurement": "% Growth", "setting": "K562; K562, 10^−6 molar", "value": 54, "unit": "%"},
      {"measurement": "% Growth", "setting": "K562; K562, 10^−7 molar", "value": 52, "unit": "%"},
      {"measurement": "% Growth", "setting": "SR; 10^−4 molar", "value": 60, "unit": "%"},
      {"measurement": "% Growth", "setting": "SR; 10^−5 molar", "value": 31, "unit": "%"},
      {"measurement": "% Growth", "setting": "MOLT-4; MOLT-4, 10^−4 molar", "value": "(85) %"},
      {"measurement": "% Growth", "setting": "MOLT-4; MOLT-4, 10^−5 molar", "value": 46, "unit": "%"},
      {"measurement": "percent of growth of human tumor cells", "setting": "SF-295; SF-295 (CNS Cancer), 10^−4 molar", "value": 24, "unit": "%"},
      {"measurement": "percent of growth of human tumor cells", "setting": "NCI-H460", "value": 12, "unit": "%"}
    ]},
    {"compound": "O=C(O)c1ccccc1C(=O)NCC1S(=O)(=O)OCCOS1(=O)=O", "note": "[NSC 671537, ethylene (2-carboxy-benzoyl)-N-2-ethane-1,1-disulfonate]", "values": [
      {"measurement": "Percentage of cancers showing negative growth cancers tested", "setting": "human cancer cells; 10^−4 M conc.", "value": "10^−4 M conc. = 0/1 = 0%"},
      {"measurement": "% Growth", "setting": "KM12; KM12, 10^−4 molar", "value": 62, "unit": "%"},
      {"measurement": "% Growth", "setting": "KM12; KM12, 10^−5 molar", "value": 54, "unit": "%"},
      {"measurement": "% Growth", "setting": "KM12; KM12, 10^−6 molar", "value": 45, "unit": "%"},
      {"measurement": "% Growth", "setting": "KM12; KM12, 10^−7 molar", "value": 61, "unit": "%"},
      {"measurement": "% Growth", "setting": "KM12; KM12, 10^−8 molar", "value": 41, "unit": "%"}
    ]}
  ]
}
